Data reported in US20200370080A1, “ENANTIONSELECTIVE ENZYMATIC SULFOXIDATION OF CHIRAL ARYLSULFIDES” (Bayer Aktiengesellschaft, priority 2017, published 2020).

Key:
E. coli cells = test: toxicity of educt and product: growth of the production strain at different concentrations; format: cell-based
Method: A person skilled in the art knows how to determine the maximum rate at which the enzyme can process the substrate and thus how much substrate can be added to a given reaction continuously or in a given time interval. To understand the toxicity of educt and product the growth rate of the production strain is determined in presence of different educt and product concentration.

[1] = system: styrene monooxygenase StyA/StyB from A. baylyi; test: in vitro sulfoxidation of arylsulfide substrates by purified StyA (oxygenase) with excess StyB (reductase), HPLC analysis; format: biochemical, Acinetobacter baylyi sp. ADP1; details: for ee %: enantiomeric excess of sulfoxide formed, abs. configuration S; for yield %): enzymatic conversion to sulfoxide, 2 mM substrate (1 mM in case of clouding), purified StyA with excess StyB
Method: In order to do so, the StyA unit from Acinetobacter sp. ADP1 was cloned into a pET-vector inducible with IPTG and expressed in E. coli BL21 pLysS grown in LB medium (10 g/l tryptone, 5 g/l yeast extract, 10 g/l or 20 g/l NaCl, 100 μg/ml ampicillin, 50 μg/ml Chloramphenicol). For the expression a 5 ml overnight culture was used as inoculum for a fermenter with […] or a flask with 500 ml medium. The cells were cultured at 37° C. until the culture reached an optical density of 0.6 which was the threshold for induction of recombinant gene expression using IPTG (0.1 mM). The culture was performed for another 18 h at 20° C. […] The cells were harvested and the cellular walls were disrupted using a French press. […] The target protein was purified for the subsequent characterization.
The StyB unit from Acinetobacter baylyi sp. ADP1 was expressed in a similar fashion.
In order to test the activity the StyB unit (reductase) was employed in excess to supply the StyA unit (oxygenase) with sufficient reduced FAD. Therefore, NADH was produced by a format-dehydrogenase from format and NAD in the respective enzymatic reaction.
The enzyme conversion rate was probed every minute for 15 min for the kinetic analysis. If possible, i.e. soluble, 2 mM substrate were employed. In case of clouding 1 mM substrate was employed. The substrate was dissolved in ethanol. Reactions in the probes were stopped with a 1:1 mixture of ice-cold methanol and acetonitrile and afterwards analyzed using HPLC.
The educt and the product were analyzed on an Agilent 1100 HPLC device.

[2] = resting cell activity of whole-cell biocatalyst (E. coli JM101 pStyAB_ADP1_lac); format: cell-based; details: E. coli JM101, M9 minimal medium, 4.8 h after induction with 1 mM IPTG
Method: In detail, the styrene monooxygenase subunits StyA and StyB were expressed in E. coli JM101 cultivated in M9 minimal medium from the pStyAB_ADP1_lac vector. To find the maximum specific activity samples were taken after previously defined time points after addition of the inducer (1 mM IPTG). Cells were retrieved from the actively growing culture and used for the determination of the resting cell activity. As shown in FIG. 3 the specific activity increased steadily from the time point of induction and reached a maximum of 450±30 U/gcdw 4.8 h after induction.
In detail, the specific activity was quantified as follows: StyA and StyB were expressed in E. coli JM101 carrying the pStyAB_ADP1_lac vector. Cells were cultivated in M9 minimal medium and induced at an OD of 0.6-0.8. […]
Successful separation of the product i.e. the S-enantiomer of 2-chloro-4-(methylsulfinylmethyl)pyridine was achieved on a Dionex UltiMate 3000 HPLC system (Thermo Scientific) equipped with a non-polar HPLC column with C18 matrix (Accucore C18, 3×150 mm, 2.6 μm particle size, Thermo Scientific). […] The organic compounds were detected by absorption using diode array detector (DAD) at a wavelength of 210 nm. […]

C[S@+]([O-])Cc1ccnc(Cl)c1 [2-Chloro-4-((methyl-S-sulfinyl)methyl)pyridine]
toxicity of the product compared with the substrate (E. coli cells; E. coli cells): significantly lower

CSCc1ccnc(Cl)c1 [2-chloro-4-(methylsulfanylmethyl)pyridine]
substrate concentration that entirely inhibited the growth of the cells (E. coli cells; E. coli cells expressing StyA and StyB): above 10 mM

CSc1ccccc1 [Ph—S—CH3, phenyl methyl sulfide]
ee % [1]: 99.3% | yield %) [1]: 48%

C=CSc1ccccc1 [Ph—S—CH═CH2, phenyl vinyl sulfide]
ee % [1]: 99.7% | yield %) [1]: 40%

CSc1ccc(Br)cc1 [p(Br)—Ph—S—CH3, 4-bromophenyl methyl sulfide]
ee % [1]: 98.1% | yield %) [1]: 58%

CSc1ccc(C)cc1 [p(CH3)—Ph—S—CH3, 4-methylphenyl methyl sulfide]
ee % [1]: 97.6% | yield %) [1]: 42%

CSc1ccc(Cl)cc1 [p(Cl)—Ph—S—CH3, 4-chlorophenyl methyl sulfide]
ee % [1]: 95.5% | yield %) [1]: 34%

CSc1ccc(F)cc1 [p(F)—Ph—S—CH3, 4-fluorophenyl methyl sulfide]
ee % [1]: 99.0% | yield %) [1]: 55%

B1: styrene monooxygenase subunits StyA and StyB: two-component styrene monooxygenase (SEQ ID NO 5 and 6) expressed in E. coli JM101 from the pStyAB_ADP1_lac vector (protein, listed as Acinetobacter baylyi)
chain 1: MRRIAIVGAGQSGLQLGLSLLDTGYDVTIVTNRTADQIRQGKVMSSQCMFHTALQTERDVGLNFWEEQCPAVEGIGFTLVSPETGKPAFSWSARLERYAQSVDQRVKMPYWIEEFERRGGKLIIQDVGIDELEQLTTEYELVLLAAGKGEVVKQFVRDDERSTFDKPQRALALTYVTGMKPMSPYSRVTFNVIPGVGEYFCFPALTVTGPCEIMVFEGIPGGPMDCWQDAKTPEQHLQMSKDILNTYLPWEAERCENIEITDAGGYLAGRFPPSVRKPILTLPSGRQVFGMADALVVNDPITGQGSNNAAKCSKIYFDAILAHDTQSFTPEWMQQTFERYWSYAEKVVAWTNSLLVPPQPQMIDVLAAASQNQAIASTIANNFDDPRNFSPWWFDAEQAQHFIESKSCQKVA
chain 2: MNINTSHELGLKPIDTENPREIRNLLGQFATGVTVITTRGRDGRKIGMTANSFSSLSLDPPLILWSLSKTAPSLPDFTEAEYFAIHMLAQEHHSLSGHFARGSEDKFASIAHRECERGLPLLEDVLATLVCKNINQYEGGDHLIFIGQIEHYQQRIGEPLVFHAGKYRIAAEHPELSA
maximum specific activity [2]: 450±30 U/gcdw
